Read-outs that look alike come from different tables or passages of the source.
Experiments:
KM mice = test: Acute toxicity studies, single dose; assay type: in vivo; details: for Death (%) on day 14 / No. of death mice, Five-fourteen day / No. of death mice, Four day / No. of death mice, One day / No. of death mice, Three day / No. of death mice, Two day / Total death: 10 animals
Method: We further evaluated the safety of chiral platinum(II) complex 6 by using KM mice via the tail vein injection with a single dose of complex 6 at 15, 12, 9.6 and 7.8 mg/kg, respectively. After 14 days, the mortality rate of mice was calculated (Supplementary Figure 31 and Supplementary Table 10). […] However, at higher doses (>7.8 mg/kg), death of mice occurred. Thus, the doses of 7.8 mg/kg of complex 6 were employed in the further in vivo experiment.

mice = test: In vivo toxicity of multiple doses; details: monitored another week
Method: We then assessed the in vivo toxicity of multiple doses of complex 6. The mice was treated with complex 6 at 7.8 mg/kg daily or per two day by iv injection up to 7 days, and then monitored for another week.

BEL-7404 xenograft = details: for Body weight (start) / Tumor volume (start) / Average tumor weight (mean ± SD g) / Body weight (end) / RBW (%) (end) / Tumor volume (end): BEL-7404 model; for Average tumor weight (mean ± SD g) / Body weight (end) / RBW (%) (end) / Tumor volume (end): day 18
Method: In vivo anticancer efficacy of chiral platinum(II) complex 6 was evaluated using BEL-7404 and BEL-7402 xenograft mouse models. BEL-7404 and BEL-7402 cells were injected into nude mice. The mice were randomized into the control group, complex 6-treated group, and the positive control group (n = 6/group). When the volume of tumor was about 80 mm^3, complex 6 was given at a high (8 mg/kg) and low (4 mg/kg) dosage daily for 18 days, 5-FU (20 mg/kg every two days) and Cisplatin (2 mg/kg every two days) were used as a positive control in the BEL-7404 and BEL-7402 xenograft model, respectively.
To evaluate the vivo anticancer efficacy of complex 6, BEL-7404 and BEL-7402 xenograft mouse models (BALB/c nude mice, female for BEL-7404 model, 17–20 g, 6–7 weeks old; male for BEL-7402 model, 18-21 g, 6–7 weeks old) were used. Furthermore, animal used, maximum tolerated dose (MTD) analysis, acute toxicity studies and antitumor activity toward BEL-7404 and BEL-7402 models in vivo of complex 6, was similar to Chen reported.
H21T (3.5 pmol; 5’-G [T AG ] -3’), primer TS (18 pmol; tumor tissue were cut into about 1.5 mm3 small pieces, and […]
5’-[…]-3’), KCl (63 mM), then transplanted into the right flank of nude mice. When EGTA (1 mM), MgCl (1.5 mM), Tween-20 (0.005%), the average tumors reach a volume of about 80 mm3, the […]
primer NT (7.5 pmol; 5’-[…]-3’), mice were randomized into 4 groups (n=6), received the […]
TSNT internal control (0.01 amol; 5’-[…] following treatments: (a) control, received saline solvent; […]
-3’), primer (b) complex 6 at doses of 8.0 mg/kg daily (dissolve in […]
Cxext (22.5 pmol; 5’-[…] saline, iv); (c) complex 6 at doses of 4.0 mg/kg daily; […]
[…]-3’), Taq DNA polymerase (2.5 U), and (d) in BEL-7404 model, 5-fluorouracil (5-Fu) as positive telomerase (100 ng). Complexes or/and distilled water control at 20 mg/kg per two days (dissolve in saline, iv); was added ([…]). PCR was performed in an Eppendorf in BEL-7402 model, cisplatin as positive control at 2 mg/ Master cycler equipped with a hot lid and incubated for kg per two days (dissolve in saline, iv).
30.0 min at 30 °C, followed by 92 °C 30 s, 52 °C 30 s, The tumor volumes and body weight was monitored and 72°C 30 s for 30.0 cycles. After amplification, 8.0 every 3 days, The tumor volumes were estimated by […] loading buffer (5×TBE buffer, 0.2% xylene cyanol, measuring the two dimensions of the tumors using caliper and 0.2% bromophenol blue ) were added to the reaction. and calculated by the formula 1 [1, 6, 14]:
An […] of aliquot was loaded onto a nondenaturing V = (length × width2)/2(1) acrylamide gel (19:1, 16%) in 1×TBE buffer and resolved at 200.0 V for 1.0 h. Gels were fixed and then stained with On day 18, the mice were sacrificed, and tumor AgNO3 [8–11]. tissue were dissected out and weighted, tumor growth inhibition rate calculated using formulas 2 and 3 [1, 6,
In order to verify whether complexes 4–6 can TGI (%) = (ΔVc − ΔVt)/ΔVc×100%(2) directly regulate c-myc promoter (Pu27) and the IR(%) = (Wc − Wt)/Wc×100%(3) expression of hTRET in BEL-7404 cells, consequently Where ΔVt = tumor volumefinal −tumor volumeinitial inhibiting the telomerase function, we constructed EGFP for compound treated group, ΔVc=tumor volumefinal − and c-myc gene vectors according to those illustrated tumor volumeinitial for vehicle control group; Wt and Wc in Chalfie, Chen and He previous work. The detailed mean the average tumor weight of complex-treated and procedures for the construct of gene (c-myc and EGFP vehicle controlled group respectively. genes) vectors, and the method of transfection assays REFERENCES have been reported by Chalfie, Chen and He [1, 6, 9, 12,

[1] = single tail vein dose 7.8 mg/kg
[2] = single tail vein dose 9.6 mg/kg

Substance: cis-[PtCl2(S-(–)-FOA)] [complex 6]
- Death (%) on day 14 (KM mice; [1]): 0%
- No. of death mice, Five-fourteen day (KM mice; [1]): 0
- No. of death mice, Four day (KM mice; [1]): 0
- No. of death mice, One day (KM mice; [1]): 0
- No. of death mice, Three day (KM mice; [1]): 0
- No. of death mice, Two day (KM mice; [1]): 0
- Total death (KM mice; [1]): 0
- acute toxicity finding (KM mice; single tail vein dose 7.8 mg/kg, 14 days): did not kill any animal or cause any abnormality
- Death (%) on day 14 (KM mice; [2]): 10%
- No. of death mice, Five-fourteen day (KM mice; [2]): 0
- No. of death mice, Four day (KM mice; [2]): 0
- No. of death mice, One day (KM mice; [2]): 0
- No. of death mice, Three day (KM mice; [2]): 0
- No. of death mice, Two day (KM mice; [2]): 1
- Total death (KM mice; [2]): 1
- Death (%) on day 14 (KM mice; single tail vein dose 12 mg/kg): 40%
- No. of death mice, Five-fourteen day (KM mice; single tail vein dose 12 mg/kg): 0
- No. of death mice, Four day (KM mice; single tail vein dose 12 mg/kg): 0
- No. of death mice, One day (KM mice; single tail vein dose 12 mg/kg): 3
- No. of death mice, Three day (KM mice; single tail vein dose 12 mg/kg): 1
- No. of death mice, Two day (KM mice; single tail vein dose 12 mg/kg): 1
- Death (%) on day 14 (KM mice; single tail vein dose 15 mg/kg): 90%
- No. of death mice, Five-fourteen day (KM mice; single tail vein dose 15 mg/kg): 0
- No. of death mice, Four day (KM mice; single tail vein dose 15 mg/kg): 0
- No. of death mice, One day (KM mice; single tail vein dose 15 mg/kg): 7
- No. of death mice, Three day (KM mice; single tail vein dose 15 mg/kg): 1
- No. of death mice, Two day (KM mice; single tail vein dose 15 mg/kg): 1
- Total death (KM mice; single tail vein dose 15 mg/kg): 9
- safety of multiple doses (mice; 7.8 mg/kg daily iv up to 7 days): safe for mice
- body weight change (mice; 7.8 mg/kg daily or per two day iv up to 7 days): Moderate body weight increase
- discomfort / side effects in diet intake or overall body weight (BEL-7404 xenograft; BEL-7404 and BEL-7402 models, 4 and 8 mg/kg daily): did not display any discomfort or discernible side effects
- Body weight (start) (BEL-7404 xenograft; 6 4.0 mg/kg daily iv): 19.5 ± 1.6 g
- Tumor volume (start) (BEL-7404 xenograft; 6 4.0 mg/kg daily iv): 75.81±19.95 mm3
- Average tumor weight (mean ± SD g) (BEL-7404 xenograft; 6 4.0 mg/kg daily iv): 0.67 ± 0.08 g
- Body weight (end) (BEL-7404 xenograft; 6 4.0 mg/kg daily iv): 17.2 ± 1.7 g
- RBW (%) (end) (BEL-7404 xenograft; 6 4.0 mg/kg daily iv): 87.9±4.2%
- Tumor volume (end) (BEL-7404 xenograft; 6 4.0 mg/kg daily iv): 782.94±73.43 mm3
- Body weight (start) (BEL-7404 xenograft; 6 8.0 mg/kg daily iv): 19.5 ± 1.2 g
- Tumor volume (start) (BEL-7404 xenograft; 6 8.0 mg/kg daily iv): 73.70±16.66 mm3
- Average tumor weight (mean ± SD g) (BEL-7404 xenograft; 6 8.0 mg/kg daily iv): 0.51 ± 0.19 g
- Body weight (end) (BEL-7404 xenograft; 6 8.0 mg/kg daily iv): 17.4 ± 0.8 g
- RBW (%) (end) (BEL-7404 xenograft; 6 8.0 mg/kg daily iv): 89.2±2.5%
- Tumor volume (end) (BEL-7404 xenograft; 6 8.0 mg/kg daily iv): 659.96±253.88 mm3

Reference: publication PMC5617480 (Oncotarget, 2017)
